Data as given in patent US20250059499A1, “CELL-SURFACE ENGINEERING COMPOSITIONS AND METHODS FOR THE PREVENTION OF IMMUNE REJECTION” (THE UNIVERSITY OF BRITISH COLUMBIA, priority 2021, published 2025).
Entries after “also recorded” stand apart in the source; their conditions may differ. LPG = linear polyglycerol, Mn 14,900 Da

Columns and labels:
[1] = test system: cell-surface ICAM-1; test: ICAM-1 labelling by flow cytometry (immunocamouflage); format: cell-based, human; conditions: TNF-α activated Ea.hy926, 0.2-3.0 mM polymer, UW, 4° C.
Method: For ICAM-1 labelling, Ea.hy926 cells were activated with TNF-α (2000 U/mL, 3 hours)^9 in serum deficient DMEM to stimulate the expression of ICAM-1 on the cell surface before polymer attachment. To account for differences in reactivity between Q-tagged polymers, concentrations of polymer added to the solution were adjusted using NH3 generation data to ensure that a similar number of polymers attached to the cell surface. Following polymer attachment, the cells were fixed, and labelled with PE-Cy™5 Mouse Anti-Human CD54 (1:20, BD Biosciences™) for 20 minutes at room temp in the dark. The cell monolayers were trypsinized and subjected to flow cytometry (CytoFLEX™, Beckman Coulter™) in which 10,000 events were acquired and the median fluorescent intensity in the 667 channel was recorded

[2] = test system: Ea.hy926 cells; test: Polymer attachment to endothelial cell surface by flow cytometry (BODIPY FL-labelled polymer); format: cell-based
Method: Ea.hy 926 cells at […] confluence were trypsinized and plated in a 96 well plate at 15,000 cells/well. Cells reached 100% confluence at day 3 and allowed to grow for a further 4 days at 37° C. and 5% CO2. Cells were washed twice with cold DPBS and incubated with UW solution freshly supplemented with 3 mM GSH, 5 mM CaCl2, 0.2 […] and 0.5 mM LPG-Q or 0.56 mM glycopolymers ([…]) unless otherwise noted. The solutions were mixed thoroughly and incubated at 4° C. for 30 minutes under static conditions. The cell supernatant was collected and the cells were washed three times with PBS and subjected to further analysis. The assessment of polymer attachment to endothelial cells are assessed by ammonia assay, flow cytometry and polymer mediated cell-surface camouflage of surface proteins. […] To quantify the extent of cell surface engineering, polymers were attached to endothelial surfaces according to the general cell surface engineering procedures outlined in previously using polymer in which 10% were labelled with BODIPY FLTM (ratio of non-labeled polymer: BODIPY labeled polymer=9:1). The cell monolayers were trypsinized and subjected to flow cytometry (CytoFLEXTM, Beckman CoulterTM) in which 10,000 events were acquired and the median fluorescent intensity (MFI) in the 488 channel was recorded.

[3] = test system: Ea.hy926 cells; test: Enzyme-mediated glycocalyx removal from endothelial surface (loss of attached polymer); format: cell-based; conditions: 0.1 mM H2O2 and 1 nM epinephrine, 1 hour at 37° C.
Method: Ea.hy926 endothelial cells were treated with 0.5 mM LPG-SS or LPG-Q (containing 10% BODIPY FL) for 30 min at 4° C. in UW solution fortified with 3 mM GSH, 5 mM CaCl2, 0.2 U/mL gtTGase. […] Cells were washed, trypsinized and immediately subjected to flow cytometry. Controls with no enzyme treatment were used to set gates for 100% labeled cell populations.

[4] = test system: Ea.hy926 cells; test: Lifetime of grafted polymer on the cell surface; format: cell-based; conditions: 37° C., after ligation with 0.5 mM polymer
Method: For lifetime measurements, polymers were attached to endothelial surfaces according to procedures outlined herein using 0.5 mM LPG-Q (10% BODIPY FL™) and exchanged into phenol-free DMEM (5% FBS, pen/strep) and incubated at 37° C. and 5% CO2. For each time point the supernatant was removed and saved for further analysis and the cell monolayers were trypsinized and subjected to flow cytometry (CytoFLEX™, Beckman Coulter™) in which 10,000 events were acquired and the median fluorescent intensity (MFI) in the 488 channel was recorded. The fluorescent intensity of the BODIPY-FL Dye in the supernatant was measured (λex/λem=503/520 nm using) a plate reader (Spectramax i3™, Molecular Devices™). Intensity values were normalized to the total cell number in each well as assessed by a trypan blue staining assay.

[5] = test system: Balb/c aortic allograft in C57BL/6 recipient; test: Murine aortic interposition grafting, morphological analysis of allograft arteries; format: in vivo, mouse; conditions: day 2 post-transplantation
Method: Murine aortic interposition grafting was performed as described previously.^13,14 Segments of abdominal aorta from Balb/c (H2d) donor mice were excised, flushed with UW solution and then incubated in UW solution alone (containing 5 Mm CaCl2, 0.2 U/Ml gTGase and 3 mM GSH) or UW solution fortified with 0.2 U/mL gtTGase and 0.5 Mm polymer (LPG-Q, LPG-QSia3Lac) for 1 hour at 4° C. Aortic segments were then flushed with saline and interposed into the resected infra-renal aorta of C57BL/6 (H2b) recipient mice.
At day 2, 15 and 42 post-transplantation, grafted artery segments were perfusion fixed with 4% (v/v) paraformaldehyde, excised, and frozen in optimal cutting temperature medium. […] Medial thickness was quantified using ImageJ software (NIH) as described.69 Histological features of acute rejection at day 15 post-transplantation were graded in a blinded manner on a 0-12 scale because acute rejection involves more extensive features of immune reaction and injury compared to day 2 post-transplantation. […] Leukocyte infiltration, medial injury and intimal thickening were each graded on a 0-4 scale and an aggregate score calculated. For evaluation of chronic rejection, intimal thickening at day 42 was quantified by averaging the luminal narrowing in 3 cross-sections per artery that were ˜100, 150 and 200 μm past the suture sites using ImageJ™ software.

[6] = test system: TNF-α activated Ea.hy926 cells co-cultured with IL-2 activated PBMCs
Method: EA.hy 926 monolayers were activated using TNF-α and PBMCs were activated using IL-2 as described in PBMC adhesion experiments. Following activation, PBMC was collected and resuspended in DMEM (Phenol free, 5% FBS, pen/strep). PBMCs were then added to activated EA.hy 926 monolayers (modified and unmodified) to a final concentration of 0.15×10^6 cells/mL and left to incubate at 37° C. and 5% CO2 for 18 hour. After treatment, the supernatant was collected and cell debris was removed through centrifugation. LDH content was measured using LDC cytotoxicity assay (Biovision Inc.™). Cytotoxicity was calculated using the equation below;
where, LDHsample is the amount of LDH released from the sample, LDHPBMC is the amount of LDH released from PBMC samples not subjected to EA.hy 926 monolayers, LDHalive is the amount of LDH released from EA.hy 926 monolayers not subjected to PBMCs, and LDHdead is the amount of LDH released of EA.hy926 monolayers treated with RIPA buffer for 10 minutes at room temperature.

linear polyglycerol glutamine (Ac-GQQQLGGGGG-{LPG}; not fully specified; also: part of the polymer BODIPY FL-labelled in some experiments) [LPG-Q]
detection of ICAM-1 on the surface of endothelial cells [1]: camouflages pro-inflammatory ICAM-1 receptors in a dose-dependent manner; also recorded: reduced the detection of ICAM-1
LPG-Q attachment versus concentration ([2]; 0.2 mM-3.0 mM, 4° C., 30 minutes, UW solution with gtTGase): dose-dependent increase
levels of cell-surface labelling, enzyme-mediated approach compared to succinimidyl succinate amine coupling ([2]; 30 min at 4° C. in UW solution with gtTGase, versus LPG-SS): ~4.4 fold
polymer retained / glycocalyx specificity after enzyme-mediated glycocalyx removal [3]: higher specificity for glycocalyx modification
half-life (t1/2) on the cell surface [4]: 8 h
medial inflammation (graded 0-4) [5]: not demonstrated
decrease of PBMC-mediated cytotoxicity compared to unmodified cells [6]: under 2 fold
dependence of PBMC-mediated cytotoxicity suppression on polymer concentration or sialylation [6]: no continued significant increase in immunosuppression was observed beyond 0.27 mM
